Assay results from publication PMC7916174, “Preliminary Study of a 1,5-Benzodiazepine-Derivative Labelled with Indium-111 for CCK-2 Receptor Targeting” (Molecules, 2021).
pKd: −log10 of the molar value. Blank lines part the entries; values can stand above or below the compound they belong to.

Key:
[1] = tested on: CCK-2R; parameters: method as in PMID 24325469; conditions: cited from earlier work
[2] = tested on: A549 cells; test: [111In]In-IP-001 cellular uptake; format: cell-based, human
Description: A549 epithelial lung cancer cells were seeded in 6-well plates (20,000/cm^2) and allowed to adhere overnight. The following day, the medium was removed and radiotracer uptake was studied by incubating 2 × 10^5 cells at 37 °C in 2 mL of culture medium added to 30 µL (ca. 2 MBq, 1.35 μg, 1 nmol) of [^111In]In-IP-001. Uptake was monitored at 2, 4, 8, and 24 h. At these time points, the medium was removed and cells were washed twice with 2 mL of ice-cold PBS. Finally, cells were detached with 2 mL of a 0.25% trypsin/EDTA solution at 37 °C and centrifuged to separate the supernatant from the cells pellet. The radioactivity associated with the pellets was measured in a γ-spectrometer and corrected for decay. All experiments were performed in triplicate.

[3] = tested on: A549 xenograft tumors; test: Blocking experiment with 50-fold molar excess of unlabeled IP-001, ex vivo biodistribution; format: in vivo, BALB/c nude mice
Description: (§1) Homozygous female BALB/c nude J:NU (JAX stock number 007850) mice were purchased from Jackson Laboratories (Bar Harbor, ME, USA). Mice were 4 weeks old at arrival, and they were hosted in an IVC system (Smart Flow AHU, Tecniplast) with autoclaved rodent bedding hosting 3–4 mice per cage. Mice were fed with autoclaved rodent food and water ad libitum. The inoculation of A549 tumor cell line was performed by the subcutaneous injection of 5 × 10^6 cells/mouse in 100 uL of […] medium (RPMI added of 10% FBS, 1% penicillin-streptomycin, 1% glutamine) into the right shoulder. […] Inoculation was carried out at 5 weeks of age after one week in the facility for acclimatization purposes. Mice were monitored every 2–3 days by measuring weight and tumor dimensions with an electronic caliper. For this purpose, two perpendicular dimensions were noted and volumes of the tumors were calculated with the formula 0.5 × L × W^2, where L is the measurement of the longest axis and W is the measurement of the axis perpendicular to L, in millimeters.
Tumors were allowed to grow for about five weeks until they reached 0.5–1.0 cm of size in one dimension (i.e., around 50–250 mm^3 volume), and then mice were divided in two groups. The experimental group (n = 5) was intravenously injected (retro-orbital venous sinus) with 150 μL of a [^111]In-IP-001 solution (2.06 nmol, 7.4MBq), while the blocked group (n = 5) was injected with 150 μL of a [^111]In-IP-001 solution added to a 50-fold molar excess of cold ligand. All injections were performed with the animals under isoflurane anesthesia (1–3%), using 30G ultra-fine insulin syringes. […]
(§2) For biodistribution studies, the injections were performed as described above, and 3 mice for both groups were sacrificed at 4 and 24 h post injection using 2% isoflurane. Main organs and tissues were removed, weighed, and counted together with blood samples, muscle, and urine by a γ-counter system (Cobra II from Packard, Canberra, ME, USA). […]

[4] = Lipophilicity, octanol-water shaking flask method; format: physicochemical
Description: (§3) The stability of [^111In]In-IP-001 solutions (0.5 mL, 10 nmol, 18 MBq) was assessed by means of radio-TLC or RP-HPLC at various temperatures (4, 24, and 37 °C) and in the presence of different media up to 120 h after preparation. The studies were performed by incubating the radiotracer with (i) a 0.9% NaCl solution at a 9:1 ratio, (ii) a 0.1 M HEPES solution at a 9:1 ratio, (iii) a 0.1 M EDTA solution at 9:1 and 1:1 ratios, (iv) human serum (HS) at a 9:1 ratio, and (v) HB at a 1:1 ratio. After TLC analysis, samples incubated with HB were centrifuged at 3000 rpm for 10 min to precipitate blood cells, and 200 μL of a MeCN/H2O/TFA 50/45/5 v/v/v solution was added to 400 μL of the supernatant. After another centrifugation under the same conditions, the supernatant was discarded and the residual radioactivity due to the proteins bound fraction was measured in a dose calibrator. Lipophilicity calculation were performed in octanol–water with the shaking flask method, as already described elsewhere. All experiments were performed in triplicate.

[5] = Stability of the radiotracer in NaCl 0.9%, HEPES and EDTA (radio-TLC / RP-HPLC); format: physicochemical
Description: (§4) HPLC analyses on indium-111-labelled IP-001 were performed on an S1125 HPLC pump system, and the column used was an Acclaim 120 C18, 3 × 150 mm, 3 µm 120 Å pore size; flow: 0.6 mL/min; gradient: minutes 0–2 A: 70% B: 30%; minutes 2–12 B: 30% -> 95%; and minutes 12–15 B: 95% -> 30%, where A: H2O (0.1% TFA) and B: MeCN. Detection was carried out with an S3245 UV–Vis and an S3700 gamma detector system.
(§5) TLC plates used for the assessment of the preparative reactions were silica gel 60 […] (0.2 mm, Merck) with the eluents mentioned for the specific product in the following paragraphs. Column chromatography was carried out with silica gel 60 (0.063–0.100 mm, Merck), and elution was performed using the eluent described for the specific preparations. The radioactive incorporation and stability of [^111In]In-IP-001 were assessed on ITLC-SG plates, developed in a 1 M ammonium acetate/MeOH 1:1 v/v solution, by using a flatbed-imaging scanner (Cyclone, Perkin Elmer).
as §3

[6] = Stability of the radiotracer in human serum; format: in vitro ADME; conditions: for Stability (%), amount of intact radiotracer: Human serum
Description: as §4, §5, §3

[7] = Stability of the radiotracer in human blood; format: in vitro ADME; conditions: for Stability (%), amount of intact radiotracer: Human blood
Description: as §4, §5, §3

[8] = tested on: A549 xenograft tumors; test: Ex vivo biodistribution in A549 tumor-bearing mice; parameters: species or system BALB/c nude mice
Description: as §1
Tumors were allowed to grow for about five weeks until they reached 0.5–1.0 cm of size in one dimension (i.e., around 50–250 mm^3 volume), and then mice were divided in two groups. The experimental group (n = 5) was intravenously injected (retro-orbital venous sinus) with 150 μL of a [^111]In-IP-001 solution (2.06 nmol, 7.4MBq), while the blocked group (n = 5) was injected with 150 μL of a [^111]In-IP-001 solution added to a 50-fold molar excess of cold ligand. All injections were performed with the animals under isoflurane anesthesia (1–3%), using 30G ultra-fine insulin syringes. Real-time, live, and fast dynamic screening studies were performed right after injection and on selected time points post-injection, on a dedicated desktop, mouse-sized, planar scintigraphic system (γ-eye^TM by BIOEMTECH, Athens, Greece). The system supports fusion with a digital mouse photograph for anatomical co-registration. The main detector is based on two position-sensitive photomultiplier tubes coupled to a CsI(Na) pixelated scintillator and a medium-energy lead collimator with parallel hexagonal holes that supports a range of SPECT isotopes. The system’s field of view is 5 × 10 cm^2, with a spatial resolution of ~2 mm. […] This allowed for a fast test, right after injection, to check whether the injection was successful, and on later time points to quickly evaluate the bio-kinetics of the tracer. Tomographic SPECT/CT imaging was performed with y-CUBE^TM and x-CUBE^TM (Molecubes, Belgium), respectively, at the same selected time points post-injection. The SPECT system provides a spatial resolution of 0.6 mm for mouse imaging and of 1.5 mm for rat imaging. The CT system performs a spiral scan, it can provide images with 100 um resolution, and images were acquired with 50 kVp. Mouse imaging was performed by keeping the mice anaesthetized under isoflurane and under a constant temperature of 37 °C. SPECT scans were acquired with a 45 min duration, and each SPECT scan was followed by a high-resolution CT scan for co-registration purposes. The SPECT data were reconstructed through a maximum-likelihood expectation-maximization (MLEM) algorithm, with a 500 μm voxel size and […]. CT data were reconstructed through an iterative image space reconstruction algorithm (ISRA) algorithm with a 100 μm voxel size. Tomographic images are presented through maximum intensity projection (MIP) view). The experimental group was imaged at 2, 4, 8, and 24 h post-injection with both imaging systems, while the blocked group was imaged at 4 and 24 h.
as §2

SMILES: CC(C)(C)C(=O)CN1C(=O)[C@H](NC(=O)Nc2cccc(C(=O)O)c2)CN(C2CCCCC2)c2ccccc21 [Z-360, Nastorazepide]
selectivity relative to CCK-1R ([1]; CCK-2R versus CCK-1R): 672
pKd ([1]; CCK-2R): 9.33

difference in radioactivity in organs and tumors between normal and blocked groups ([3]; 4 h post injection): no significant differences
tumor uptake, blocked group ([3]; 24 h post injection, with 50-fold molar excess of unlabeled IP-001, n = 3): 0.84 ± 0.33 % IA/g
lower uptake in the tumor tissue in the blocking setting ([3]; blocked versus experimental group, 24 h): 45%
partition coefficient (LogP) [4]: 0.45
Stability (%), amount of intact radiotracer ([5]; EDTA (0.1 M), 4 h): 98 ± 1%
Stability (%), amount of intact radiotracer ([5]; EDTA (0.1 M), 8 h): 98 ± 1%
Stability (%), amount of intact radiotracer ([5]; EDTA (0.1 M), 24 h): 96 ± 2%
Stability (%), amount of intact radiotracer ([5]; EDTA (0.1 M), 72 h): 96 ± 3%
Stability (%), amount of intact radiotracer ([5]; HEPES (0.1 M), 4 h): 98 ± 2%
Stability (%), amount of intact radiotracer ([5]; HEPES (0.1 M), 8 h): 97 ± 3%
Stability (%), amount of intact radiotracer ([5]; HEPES (0.1 M), 24 h): 97 ± 3%
Stability (%), amount of intact radiotracer ([5]; HEPES (0.1 M), 72 h): 96 ± 1%
Stability (%), amount of intact radiotracer ([5]; NaCl 0.9%, 4 h): 98 ± 2%
Stability (%), amount of intact radiotracer ([5]; NaCl 0.9%, 8 h): 98 ± 2%
Stability (%), amount of intact radiotracer ([5]; NaCl 0.9%, 24 h): 97 ± 2%
Stability (%), amount of intact radiotracer ([5]; NaCl 0.9%, 72 h): 97 ± 2%
Stability (%), amount of intact radiotracer ([6]; 4 h): 98 ± 2%
Stability (%), amount of intact radiotracer ([6]; 8 h): 96 ± 3%
Stability (%), amount of intact radiotracer ([6]; 24 h): 95 ± 3%
Stability (%), amount of intact radiotracer ([6]; 72 h): 94 ± 2%
Stability (%), amount of intact radiotracer ([6]; 120 h): 93 ± 1%
percentage of intact compound ([6]; human serum, after 48 h): higher than 95%
Stability (%), amount of intact radiotracer ([7]; 4 h): 98 ± 2%
Stability (%), amount of intact radiotracer ([7]; 8 h): 95 ± 1%
Stability (%), amount of intact radiotracer ([7]; 24 h): 95 ± 2%
Stability (%), amount of intact radiotracer ([7]; 72 h): 93 ± 1%
Stability (%), amount of intact radiotracer ([7]; 120 h): 93 ± 2%
percentage of intact compound ([7]; human blood (HB), after 48 h): higher than 95%
spleen uptake ([8]; 4 h post injection (abstract)): 3.88 ± 0.36 % ID/cc
tumor uptake ([8]; 4 h post injection, i.v., n = 3): 2.36 ± 0.26 % IA/g
blood uptake ([8]; 4 h post injection, n = 3): 4.21 ± 0.40 % IA/g
intestines uptake ([8]; 4 h post injection, n = 3): 2.39 ± 0.28 % IA/g
kidneys uptake ([8]; 4 h post injection, n = 3): 6.99 ± 0.97 % IA/g
liver uptake ([8]; 4 h post injection, n = 3): 8.25 ± 2.21 % IA/g
lungs uptake ([8]; 4 h post injection, n = 3): 2.82 ± 0.21 % IA/g
pancreas uptake ([8]; 4 h post injection, n = 3): 2.03 ± 0.16 % IA/g
spleen uptake ([8]; 4 h post injection, n = 3): 3.88± 0.36 % IA/g
intestines uptake ([8]; 24 h post injection): 0.55 ± 0.29 % IA/g
kidneys uptake ([8]; 24 h post injection): 3.11 ± 0.52 % IA/g
liver uptake ([8]; 24 h post injection): 3.55 ± 1.17 % IA/g
pancreas uptake ([8]; 24 h post injection): 0.26 ± 0.04 % IA/g
tumor to blood (T/B) ratio ([8]; 24 h post injection): 10.19
tumor to kidneys ratio ([8]; 24 h post injection): 0.48
tumor to liver ratio ([8]; 24 h post injection): 0.47
tumor to muscle (T/M) ratio ([8]; 24 h post injection): 15.72
tumor/intestines ratio ([8]; 24 h post injection): 2.76
tumor/lungs ratio ([8]; 24 h post injection): 2.02
tumor/pancreas ratio ([8]; 24 h post injection): 5.85
tumor uptake ([8]; 24 h post injection, n = 3): 1.52 ± 0.71 % IA/g
accumulated radiotracer still retained in tumor tissue ([8]; 24 h post-injection relative to 4 h): 65%
decrease of the signal over 24 h ([8]; intestines, lungs, and pancreas, from 4 h to 24 h): more than 73%
SMILES: CC(C)(C)C(=O)CN1C(=O)C(NC(=O)Nc2cccc(C(=O)NCCCCCCNC(=O)CCC(=O)NCCCOCCOCCOCCCNC(=O)CN3CCN(CC(=O)[O-])CCN(CC(=O)[O-])CCN(CC(=O)[O-])CC3)c2)CN(C2CCCCC2)c2ccccc21.[111In+3] (stereo not shown) [[^111In]In-IP-001]
maximal accumulation (percent of the added radioactivity per million cells) ([2]; 2 MBq, 4 h of incubation): around 5%
incubation time of maximal accumulation ([2]; incubation up to 24 h): 4 h
